Assay results taken from ChEMBL document CHEMBL1157530, “Cytotoxic and antibacterial sesquiterpenes from Thespesia populnea” (J Nat Prod, 2008).
In brackets after ≈: the same amount, converted by molar mass.

test system: KB; experiment: Cytotoxicity against human KB cells by SRB assay; assay type: functional, cell-based

Compared with CC1=C2OCC(C)c3ccc(C)c(c32)C(=O)C1=O (configuration not stated) [MANSONONE E], CC1=Cc2c(c(C)cc3c2C(C)CO3)C(=O)C1=O (configuration not stated) [MANSONONE D] is 12-fold higher in IC50: 0.4 µg/mL (≈ 1.65 µM) for the first, 4.9 µg/mL (≈ 20.2 µM) for the second.

Going from COc1c(O)c(C=O)c2c(O)c(-c3c(C)cc4c(C(C)C)c(OC)c(O)c(C=O)c4c3O)c(C)cc2c1C(C)C [6,6'-METHOXYGOSSYPOL] to Cc1cc2c(C(C)C)c(O)c(O)c(C=O)c2c(O)c1-c1c(C)cc2c(C(C)C)c(O)c(O)c(C=O)c2c1O [GOSSYPOL], the IC50 falls from > 5 µg/mL to 0.04 µg/mL (≈ 0.0771 µM).

Compared with CC1=CC2=C(C(C)C)C(=O)CC(C)C2=C(O)C1=O (configuration not stated) [MANSONONE S], CC1=Cc2c(c(C)cc3c2C(C)COC3(C)C)C(=O)C1=O (configuration not stated) [POPULENE C] is lower in IC50: > 5 µg/mL for the first, 3 µg/mL (≈ 10.6 µM) for the second.

First: Cc1cc2c(C(C)C)ccc(C)c2cc1O
Second: Cc1cc2c(c(O)c1O)[C@H](C)CC1=C2[C@@H](C)COC1(C)C [POPULENE D]
The IC50 of the first is higher: > 5 µg/mL for the first, 3.1 µg/mL (≈ 10.7 µM) for the second.

test system: Bacillus subtilis; experiment: Antibacterial activity against Bacillus subtilis; assay type: functional

First: CC1=C2OCC(C)c3ccc(C)c(c32)C(=O)C1=O (configuration not stated) [MANSONONE E]
Second: CC1=Cc2c(c(C)cc3c2C(C)CO3)C(=O)C1=O (configuration not stated) [MANSONONE D]
The MIC of the first is 2-fold higher: 4.69 µg/mL (≈ 19.4 µM) for the first, 2.34 µg/mL (≈ 9.66 µM) for the second.

Compared with COc1c(O)c(C=O)c2c(O)c(-c3c(C)cc4c(C(C)C)c(OC)c(O)c(C=O)c4c3O)c(C)cc2c1C(C)C [6,6'-METHOXYGOSSYPOL], Cc1cc2c(C(C)C)c(O)c(O)c(C=O)c2c(O)c1-c1c(C)cc2c(C(C)C)c(O)c(O)c(C=O)c2c1O [GOSSYPOL] is 2-fold lower in MIC: 2.34 µg/mL (≈ 4.28 µM) for the first, 1.17 µg/mL (≈ 2.26 µM) for the second.

CC1=Cc2c(c(C)cc3c2C(C)COC3(C)C)C(=O)C1=O (configuration not stated) [POPULENE C] and Cc1cc2c(c(O)c1O)[C@H](C)CC1=C2[C@@H](C)COC1(C)C [POPULENE D] are the same in MIC: 4.69 µg/mL (≈ 16.5 µM) for the first, 4.69 µg/mL (≈ 16.3 µM) for the second.

Molecule Cc1cc2c(C(C)C)ccc(C)c2cc1O has an MIC of 0.59 µg/mL (≈ 2.75 µM).

test system: HT-29; experiment: Cytotoxicity against human HT29 cells by SRB assay; assay type: functional, cell-based

Compared with CC1=C2OCC(C)c3ccc(C)c(c32)C(=O)C1=O (configuration not stated) [MANSONONE E], CC1=Cc2c(c(C)cc3c2C(C)CO3)C(=O)C1=O (configuration not stated) [MANSONONE D] is higher in IC50: 0.18 µg/mL (≈ 0.743 µM) for the first, > 5 µg/mL for the second.

Going from COc1c(O)c(C=O)c2c(O)c(-c3c(C)cc4c(C(C)C)c(OC)c(O)c(C=O)c4c3O)c(C)cc2c1C(C)C [6,6'-METHOXYGOSSYPOL] to Cc1cc2c(C(C)C)c(O)c(O)c(C=O)c2c(O)c1-c1c(C)cc2c(C(C)C)c(O)c(O)c(C=O)c2c1O [GOSSYPOL], the IC50 rises from 3 µg/mL (≈ 5.49 µM) to > 5 µg/mL.

Compared with CC1=CC2=C(C(C)C)C(=O)CC(C)C2=C(O)C1=O (configuration not stated) [MANSONONE S], CC1=Cc2c(c(C)cc3c2C(C)COC3(C)C)C(=O)C1=O (configuration not stated) [POPULENE C] is lower in IC50: > 5 µg/mL for the first, 2.9 µg/mL (≈ 10.2 µM) for the second.

First: Cc1cc2c(C(C)C)ccc(C)c2cc1O
Second: Cc1cc2c(c(O)c1O)[C@H](C)CC1=C2[C@@H](C)COC1(C)C [POPULENE D]
The IC50 of the first is higher: > 5 µg/mL for the first, 2.37 µg/mL (≈ 8.22 µM) for the second.

test system: HeLa; experiment: Cytotoxicity against human HeLa cells by SRB assay; assay type: functional, cell-based

Going from CC1=C2OCC(C)c3ccc(C)c(c32)C(=O)C1=O (configuration not stated) [MANSONONE E] to CC1=Cc2c(c(C)cc3c2C(C)CO3)C(=O)C1=O (configuration not stated) [MANSONONE D], the IC50 rises from 0.55 µg/mL (≈ 2.27 µM) to 2.8 µg/mL (≈ 11.6 µM) (5.1-fold).

Going from COc1c(O)c(C=O)c2c(O)c(-c3c(C)cc4c(C(C)C)c(OC)c(O)c(C=O)c4c3O)c(C)cc2c1C(C)C [6,6'-METHOXYGOSSYPOL] to Cc1cc2c(C(C)C)c(O)c(O)c(C=O)c2c(O)c1-c1c(C)cc2c(C(C)C)c(O)c(O)c(C=O)c2c1O [GOSSYPOL], the IC50 falls from > 5 µg/mL to 0.08 µg/mL (≈ 0.154 µM).

First: CC1=CC2=C(C(C)C)C(=O)CC(C)C2=C(O)C1=O (configuration not stated) [MANSONONE S]
Second: CC1=Cc2c(c(C)cc3c2C(C)COC3(C)C)C(=O)C1=O (configuration not stated) [POPULENE C]
The IC50 of the first is higher: > 5 µg/mL for the first, 3.4 µg/mL (≈ 12 µM) for the second.

Going from Cc1cc2c(C(C)C)ccc(C)c2cc1O to Cc1cc2c(c(O)c1O)[C@H](C)CC1=C2[C@@H](C)COC1(C)C [POPULENE D], the IC50 falls from > 5 µg/mL to 0.95 µg/mL (≈ 3.29 µM).

test system: Staphylococcus aureus; experiment: Antibacterial activity against Staphylococcus aureus TISTR517; assay type: functional

Compared with COc1c(O)c(C=O)c2c(O)c(-c3c(C)cc4c(C(C)C)c(OC)c(O)c(C=O)c4c3O)c(C)cc2c1C(C)C [6,6'-METHOXYGOSSYPOL], Cc1cc2c(C(C)C)c(O)c(O)c(C=O)c2c(O)c1-c1c(C)cc2c(C(C)C)c(O)c(O)c(C=O)c2c1O [GOSSYPOL] is 4-fold lower in MIC: 4.69 µg/mL (≈ 8.58 µM) for the first, 1.17 µg/mL (≈ 2.26 µM) for the second.

CC1=Cc2c(c(C)cc3c2C(C)COC3(C)C)C(=O)C1=O (configuration not stated) [POPULENE C] was tested, and the MIC was > 10 µg/mL.

test system: Enterococcus faecalis; experiment: Antibacterial activity against Enterococcus faecalis; assay type: functional

With COc1c(O)c(C=O)c2c(O)c(-c3c(C)cc4c(C(C)C)c(OC)c(O)c(C=O)c4c3O)c(C)cc2c1C(C)C [6,6'-METHOXYGOSSYPOL] the MIC was 1.17 µg/mL (≈ 2.14 µM).

test system: MCF7; experiment: Cytotoxicity against human MCF7 cells by SRB assay; assay type: functional, cell-based

Compared with CC1=C2OCC(C)c3ccc(C)c(c32)C(=O)C1=O (configuration not stated) [MANSONONE E], CC1=Cc2c(c(C)cc3c2C(C)CO3)C(=O)C1=O (configuration not stated) [MANSONONE D] is 16-fold higher in IC50: 0.05 µg/mL (≈ 0.206 µM) for the first, 0.8 µg/mL (≈ 3.3 µM) for the second.

Going from COc1c(O)c(C=O)c2c(O)c(-c3c(C)cc4c(C(C)C)c(OC)c(O)c(C=O)c4c3O)c(C)cc2c1C(C)C [6,6'-METHOXYGOSSYPOL] to Cc1cc2c(C(C)C)ccc(C)c2cc1O, the IC50 rises from 4 µg/mL (≈ 7.32 µM) to > 5 µg/mL.

Going from CC1=CC2=C(C(C)C)C(=O)CC(C)C2=C(O)C1=O (configuration not stated) [MANSONONE S] to CC1=Cc2c(c(C)cc3c2C(C)COC3(C)C)C(=O)C1=O (configuration not stated) [POPULENE C], the IC50 falls from > 5 µg/mL to 2.35 µg/mL (≈ 8.26 µM).

In the case of Cc1cc2c(c(O)c1O)[C@H](C)CC1=C2[C@@H](C)COC1(C)C [POPULENE D], the IC50 is reported as 1.85 µg/mL (≈ 6.41 µM).
